Test systems include UACC-257 melanoma; LOX IMVI melanoma; HCC-2998 colon; NCI-H460 lung; SF-539 CNS; OVCAR-5 ovarian; SK-MEL-5 melanoma; SK-OV-3 ovarian; EKVX NSCLC; SW-620 colon.
Common to all, as to test: NCI tumour cell line growth inhibition, 48 h

Values joined by “and” are separate entries in the source; they are usually repeats but may differ in a detail not shown here. Identical values can stand only once.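 Growth conditions: 96-well plates. Treatment: test compound, 48 hours, 5 concentrations. Analysis: linear interpolation between bracketing concentrations; unreached endpoints set to highest concentration. Abbreviation: GI50, concentration required for 50% inhibition of growth. Definition used: TGI = concentration required for complete inhibition of growth.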

Experimental findings from PubChem BioAssay (NCI) are described below.

On to `c1ccc2c(c1)[O][Sn][O]2`, for which the GI50 was > 150 µg/mL in the test with UACC-257 melanoma; 27.8 µg/mL with LOX IMVI melanoma; 81.5 µg/mL in the test on HCC-2998 colon; 46 µg/mL with NCI-H460 lung; 26.2 µg/mL in the test with SF-539 CNS; > 150 µg/mL in the test with OVCAR-5 ovarian. Further, the GI50 was 20.7 µg/mL with SK-MEL-5 melanoma, > 150 µg/mL in the test on SK-OV-3 ovarian, > 150 µg/mL in the test with EKVX NSCLC and 69 µg/mL in the test with SW-620 colon. Besides, the TGI in the test with UACC-257 melanoma was > 150 µg/mL; in the test with LOX IMVI melanoma it was 112 µg/mL; in the test on HCC-2998 colon it was > 150 µg/mL; with NCI-H460 lung it was > 150 µg/mL; in the test with SF-539 CNS, > 150 µg/mL; in the test on OVCAR-5 ovarian it was > 150 µg/mL. Besides, the TGI in the test with SK-MEL-5 melanoma, in the test on SK-OV-3 ovarian, with EKVX NSCLC and in the test with SW-620 colon was > 150 µg/mL each time.
As for `Cc1ccc(-c2nc(C(Cl)Cl)nc3cc(C)nn23)cc1`, the GI50 with UACC-257 melanoma is 3.26 µM; with LOX IMVI melanoma it was 4.01 µM; with HCC-2998 colon it was 1.18 µM; with NCI-H460 lung it was 0.515 µM; in the test with SF-539 CNS, 4.14 µM; in the test on OVCAR-5 ovarian, 2.22 µM. Further, the GI50 in the test with SK-MEL-5 melanoma was 3.5 µM; with SK-OV-3 ovarian it was 2.28 µM; in the test with EKVX NSCLC it was 2.19 µM. For the same molecule, the TGI in the test with UACC-257 melanoma is > 100 µM; in the test on LOX IMVI melanoma, > 100 µM; with HCC-2998 colon, 2.59 µM; with NCI-H460 lung, 3.01 µM; in the test with SF-539 CNS, > 100 µM; in the test with OVCAR-5 ovarian it was 6.72 µM. The TGI is > 100 µM in the test with SK-MEL-5 melanoma, 8.62 µM with SK-OV-3 ovarian and 6.45 µM in the test on EKVX NSCLC.
Consider `CCOC(=O)COc1cccc2occc(=O)c12`, for which the TGI in the test with UACC-257 melanoma, in the test on LOX IMVI melanoma, in the test on HCC-2998 colon, in the test on NCI-H460 lung, in the test with SF-539 CNS and in the test on OVCAR-5 ovarian was > 100 µM throughout. Besides, the TGI in the test on SK-MEL-5 melanoma, in the test on SK-OV-3 ovarian, in the test on EKVX NSCLC and with SW-620 colon was > 100 µM each time.
`N=C(N)c1ccc(OCCCCCOc2ccc(C(=N)N)cc2)cc1`: the GI50 is 4.44 µM and 7.51 µM and 15.5 µM with UACC-257 melanoma; 8.47 µM in the test on LOX IMVI melanoma; 7.15 µM in the test with HCC-2998 colon; 1.68 µM with NCI-H460 lung; 8.36 µM in the test on SF-539 CNS; 34 µM in the test on OVCAR-5 ovarian. For the same molecule, the GI50 is 1.02 µM and 2.29 µM and 10.1 µM with SK-MEL-5 melanoma; 8.89 µM in the test with EKVX NSCLC; 5.17 µM and 8.95 µM and 18.1 µM with SW-620 colon. Moreover, the TGI in the test on UACC-257 melanoma was 26.3 µM and 23.7 µM and 48.9 µM; with LOX IMVI melanoma, 28.8 µM and 37.8 µM and 36.4 µM; in the test on HCC-2998 colon, 40.4 µM and 28.3 µM; in the test on NCI-H460 lung, 9 µM and 17.4 µM and 18.3 µM; in the test on SF-539 CNS, 20.7 µM and 27.1 µM; in the test on OVCAR-5 ovarian, > 50 µM and 78.3 µM and > 100 µM. Besides, the TGI in the test on SK-MEL-5 melanoma was 3.33 µM and 11.7 µM and 29.5 µM; with SK-OV-3 ovarian, > 50 µM and 29.8 µM and 22.3 µM; with EKVX NSCLC, > 50 µM and 45.5 µM and 72.6 µM; in the test with SW-620 colon it was > 50 µM and 57.7 µM and 86.9 µM.
Take `CCC1=C(c2ccc(OC)cc2)CC[C@]2(CCNC2=O)[C@@H]1C`: the TGI with UACC-257 melanoma is 79.1 µM; in the test on LOX IMVI melanoma, 60.5 µM; with HCC-2998 colon it was > 65.3 µM; in the test on NCI-H460 lung it was > 85.9 µM; with SF-539 CNS, 54.8 µM; with OVCAR-5 ovarian it was > 100 µM. Besides, the TGI with SK-MEL-5 melanoma was 31.1 µM; with SK-OV-3 ovarian it was 97.1 µM; in the test on EKVX NSCLC it was > 86.7 µM; in the test on SW-620 colon, > 100 µM.
Consider `Cn1cc(NC(=O)c2cc(NC(=O)CCCCCCCC(=O)Nc3cc(C(=O)Nc4cc(C(=O)NCCC(=N)N)n(C)c4)n(C)c3)cn2C)cc1C(=O)NCCC(=N)N`, for which the TGI in the test with UACC-257 melanoma was 23.8 µM; in the test on LOX IMVI melanoma it was 28.8 µM; in the test on HCC-2998 colon it was 30.2 µM; with NCI-H460 lung, 22 µM; in the test on SF-539 CNS it was 33.1 µM; in the test on OVCAR-5 ovarian, > 100 µM. Besides, the TGI in the test with SK-MEL-5 melanoma was 22.3 µM; in the test with SK-OV-3 ovarian, > 100 µM; with EKVX NSCLC, 68.2 µM; in the test with SW-620 colon it was > 100 µM.
Consider `Cc1ccccc1CNc1c2ccccc2nc2ccccc12`, for which the GI50 is 2.2 µM with UACC-257 melanoma; 1.49 µM in the test on LOX IMVI melanoma; 1.73 µM with HCC-2998 colon; 1.86 µM in the test with NCI-H460 lung; 1.84 µM in the test on SF-539 CNS; 2.08 µM with OVCAR-5 ovarian. Moreover, the GI50 was 1.69 µM in the test on SK-MEL-5 melanoma, 2.62 µM in the test on SK-OV-3 ovarian, 2.43 µM with EKVX NSCLC and 1.77 µM in the test on SW-620 colon. Besides, the TGI in the test on UACC-257 melanoma amounted to 5.23 µM; with LOX IMVI melanoma it was 2.93 µM; in the test on HCC-2998 colon, 3.65 µM; with NCI-H460 lung, 4.71 µM; with SF-539 CNS, 4 µM; in the test on OVCAR-5 ovarian, 7.57 µM. The TGI turned out to be 3.05 µM in the test with SK-MEL-5 melanoma, 9.91 µM with SK-OV-3 ovarian, 8.02 µM in the test with EKVX NSCLC and 5.64 µM with SW-620 colon.
Take `CC(C)C/C(=N\NC(=O)c1ccncc1)c1cc(Cl)ccc1O`: the GI50 was 0.41 µM in the test with UACC-257 melanoma; 0.178 µM in the test with LOX IMVI melanoma; 0.27 µM in the test with HCC-2998 colon; 0.127 µM in the test with NCI-H460 lung; 0.363 µM in the test with SF-539 CNS; 0.825 µM in the test with OVCAR-5 ovarian. Moreover, the GI50 in the test with SK-MEL-5 melanoma is 0.562 µM; in the test with SK-OV-3 ovarian, 0.852 µM; in the test with EKVX NSCLC it was 0.312 µM; in the test with SW-620 colon it was 0.677 µM. The TGI in the test with UACC-257 melanoma turned out to be 6.62 µM; with NCI-H460 lung, 31.8 µM; with SF-539 CNS, 5.58 µM; with OVCAR-5 ovarian it was 38.9 µM; in the test with SK-MEL-5 melanoma, 2.53 µM; with SK-OV-3 ovarian, 32.2 µM. The TGI is 25.3 µM in the test on EKVX NSCLC and > 100 µM in the test on SW-620 colon.
For the molecule `Cc1csc(CCC(N)C(=O)O)n1` (centres undefined), the TGI with UACC-257 melanoma, in the test on LOX IMVI melanoma, with HCC-2998 colon, in the test with NCI-H460 lung, in the test on SF-539 CNS and in the test on SK-MEL-5 melanoma was > 100 µM in each case. Further, the TGI in the test on SK-OV-3 ovarian, in the test on EKVX NSCLC and in the test on SW-620 colon was > 100 µM throughout.
